Laboratory results: patent US20210353648A1, “GRAPIPRANT UNIT DOSAGE FORMS” (Arrys Therapeutics, Inc., priority 2018, published 2021)
Read-outs that look alike come from different tables or passages of the source.

Experiments:
[1] = Phase 1 crossover food effect study of 375 mg grapiprant tablets: safety; format: in vivo, human; settings: for subjects with treatment-emergent adverse events / treatment-emergent adverse events: 12 subjects
Protocol: This study was a randomized, open-label, single dose, 2-period crossover design. Each subject participated in 2 study periods. In each study period, subjects received a dose of 375 mg administered as 3×125 mg tablets of grapiprant under fasted or fed conditions in a crossover manner according to a randomized dosing sequence. The fed condition consisted of a standardized high-fat meal. Following an initial screening period of no longer than 28 days, 12 eligible subjects were to be randomized to the 2 treatment sequences and 2 treatment period sessions as shown in Table 6-1.
All subjects were evaluated for safety, which was assessed by adverse events either spontaneously reported or elicited by non-leading questions from study staff, clinical observations, safety laboratory tests, vital signs, 12-lead ECGs, concomitant medication assessment, physical examination, and fecal occult blood tests.

[2] = Phase 1 single ascending dose study of grapiprant OPC: pharmacokinetics; format: in vivo, human; settings: for AUC(0-t) / Cmax / AUC(0-inf) / Tmax / half-life: human, oral, serum
Protocol: Eligible subjects were to be enrolled into 8 sequential cohorts, corresponding to the planned dose levels of 1 mg, 3 mg, 10 mg, 30 mg, 100 mg, 300 mg, 600 mg, and 1000 mg. […] After determining a maximum tolerated dose (MTD), or after completing the highest dose cohort if a MTD was not determined, Cohort 11 would be enrolled to increase the number of subjects evaluated at the MTD (or the highest dose).
In each dosing period, subjects were confined to the Clinical Research Unit (CRU) for approximately 60 hours (from approximately 36 hours predose through 24 hours postdose), and were instructed to return to the study site at 48 hours postdose for collection of blood samples for safety and pharmacokinetic evaluations. Subjects had triplicate ECG measurements made at select time-points on Day 0 (to provide a time-matched baseline) and through 24 hours postdose. Continuous cardiac monitoring by telemetry was performed for 12 hours postdose (or up to 24 hours, if warranted, based on the pharmacokinetic data). Creatine phosphokinase (CPK; total CPK and CPK-MB isoenzyme) and troponin I levels were monitored predose and at 12 and 24 hours postdose. In each dosing period, blood samples were collected predose and at 0.5, 1, 1.5, 2, 2.5, 3, 4, 6, 8, 12, 16, 24, and 48 hours postdose for pharmacokinetic evaluation. Fecal occult blood was monitored predose and through 48 hours postdose. Urine was collected through 24 hours postdose for exploratory biotransformation analyses. Since grapiprant may be a substrate of efflux transporters, genotyping for P-gp, an efflux transporter, was also planned for this study.
Pharmacokinetics: The maximum observed serum concentration (Cmax) of grapiprant was estimated directly from raw serum concentration-time data with Tmax defined as the time of the first occurrence of Cmax. The apparent terminal elimination rate constant (kel) was estimated using least-squares regression analysis of the serum concentration-time data obtained during the terminal log-linear phase. The apparent terminal half-life (T½) was calculated as In 2/kel. Areas under the serum concentration-time curve from time 0 to the last time (Tlast) with a quantifiable concentration [AUC(Tlast)] were estimated using linear/log trapezoidal approximation. Areas under the serum concentration-time curve from time Tlast to infinity [AUC(Tlast-inf)] were estimated as Cpest/kel, where Cpest represented the estimated concentration at time Tlast based on the aforementioned regression analysis. Areas under the serum concentration-time curve from time 0 to infinity [AUC(inf)] were estimated as the sum of AUC(Tlast) and AUC(Tlast-inf). […] Individual serum concentrations of grapiprant were summarized in tabular and graphical form. Concentrations that were determined to be below the lower limit of quantification were assumed to be equal to zero for the pharmacokinetic analyses and mean concentration-time plots.
The 600 mg dose was studied in 2 separate cohorts. The second of these two cohorts was conducted to confirm safety assessments at this dose strength. For the pharmacokinetic analysis, pharmacokinetic parameters of both cohorts were pooled together and analyzed as a single group.

[3] = single 1 mg dose as OPC, fasted, healthy adults, mean
[4] = single 3 mg dose as OPC, fasted, healthy adults, mean
[5] = single 10 mg dose as OPC, fasted, healthy adults, mean
[6] = single 30 mg dose as OPC, fasted, healthy adults, mean
[7] = single 100 mg dose as OPC, fasted, healthy adults, mean
[8] = single 300 mg dose as OPC, fasted, healthy adults, mean
[9] = single 600 mg dose as OPC, fasted, healthy adults, mean
[10] = single 1000 mg dose as OPC, fasted, healthy adults, mean
[11] = single 1500 mg dose as OPC, fasted, healthy adults, mean
[12] = single 2000 mg dose as OPC, fasted, healthy adults, mean

CCc1nc2c(C)nc(C)cc2n1-c1ccc(CCNC(=O)NS(=O)(=O)c2ccc(C)cc2)cc1 [Grapiprant, N-((4-(2-ethyl-4,6-dimethyl-1H-imidazo[4,5-c]pyridin-1-yl)phenethyl)carbamoyl)-4-methylbenzenesulfonamide]
subjects with treatment-emergent adverse events ([1]; 375 mg tablet-fasted treatment): 5 subjects
treatment-emergent adverse events ([1]; 375 mg tablet-fasted treatment): 7 events
subjects with treatment-emergent adverse events ([1]; 375 mg tablet-fed treatment): 4 subjects
treatment-emergent adverse events ([1]; 375 mg tablet-fed treatment): 5 events
intensity of adverse events ([1]; 375 mg, after both treatments): mild in intensity
QTc ([1]; 375 mg, fasted and fed): no subjects had maximum QTc increases from baseline of ≥30 msec
clinical laboratory tests or vital sign measurements ([1]; 375 mg, fasted and fed): No subjects had clinically significant changes from baseline
deaths, serious adverse events, withdrawals ([1]; 375 mg, fasted and fed): no deaths, serious adverse events, or withdrawals due to adverse events
tolerability ([1]; 375-mg dose of tablets, fasted and fed conditions, healthy adults): well-tolerated
increase of mean serum exposure parameters with dose ([2]; between the 100 mg and 600 mg dose levels, OPC, fasted): greater than dose-proportional increases
AUC(0-t) [2, 3]: 59.1 ng·h/mL
Cmax [2, 3]: 6.59 ng/mL
AUC(0-inf) [2, 4]: 260 ng·h/mL
AUC(0-t) [2, 4]: 246 ng·h/mL
Cmax [2, 4]: 23.1 ng/mL
AUC(0-inf) [2, 5]: 917 ng·h/mL
AUC(0-t) [2, 5]: 901 ng·h/mL
Cmax [2, 5]: 110 ng/mL
AUC(0-inf) [2, 6]: 2150 ng·h/mL
AUC(0-t) [2, 6]: 2120 ng·h/mL
Cmax [2, 6]: 262 ng/mL
AUC(0-inf) [2, 7]: 7220 ng·h/mL
AUC(0-t) [2, 7]: 7170 ng·h/mL
Cmax [2, 7]: 1440 ng/mL
AUC(0-inf) [2, 8]: 31300 ng·h/mL
AUC(0-t) [2, 8]: 31200 ng·h/mL
Cmax [2, 8]: 12000 ng/mL
AUC(0-inf) [2, 9]: 92500 ng·h/mL
AUC(0-t) [2, 9]: 92200 ng·h/mL
Cmax [2, 9]: 45000 ng/mL
AUC(0-inf) [2, 10]: 175000 ng·h/mL
AUC(0-t) [2, 10]: 174000 ng·h/mL
Cmax [2, 10]: 64300 ng/mL
AUC(0-inf) [2, 11]: 242000 ng·h/mL
AUC(0-t) [2, 11]: 242000 ng·h/mL
Cmax [2, 11]: 83800 ng/mL
AUC(0-inf) [2, 12]: 479000 ng·h/mL
AUC(0-t) [2, 12]: 478000 ng·h/mL
Cmax [2, 12]: 134000 ng/mL
Tmax ([2]; 1 mg, single 1 mg dose as OPC, fasted, healthy adults, median, read-out: Tmax): 2.5 h
half-life ([2]; 3 mg, single 3 mg dose as OPC, fasted, healthy adults, mean, read-out: T½ (converted)): 5.34 h
Tmax ([2]; 3 mg, single 3 mg dose as OPC, fasted, healthy adults, median, read-out: Tmax): 3 h
half-life ([2]; 10 mg, single 10 mg dose as OPC, fasted, healthy adults, mean, read-out: T½ (converted)): 5.1 h
Tmax ([2]; 10 mg, single 10 mg dose as OPC, fasted, healthy adults, median, read-out: Tmax): 2 h
half-life ([2]; 30 mg, cohorts with clear bi-exponential decline (30 mg and above), read-out: mean terminal phase T1/2): 6.14 to 9.41 h
half-life ([2]; 30 mg, single 30 mg dose as OPC, fasted, healthy adults, mean, read-out: T½ (converted)): 6.14 h
Tmax ([2]; 30 mg, single 30 mg dose as OPC, fasted, healthy adults, median, read-out: Tmax): 1 h
Tmax ([2]; 100 mg, doses of 100 mg and above, OPC, fasted, read-out: individual Tmax values): 0.5 to 1 h
half-life ([2]; 100 mg, single 100 mg dose as OPC, fasted, healthy adults, mean, read-out: T½ (converted)): 6.91 h
Tmax ([2]; 100 mg, single 100 mg dose as OPC, fasted, healthy adults, median, read-out: Tmax): 0.75 h
half-life ([2]; 300 mg, single 300 mg dose as OPC, fasted, healthy adults, mean, read-out: T½ (converted)): 7.98 h
Tmax ([2]; 300 mg, single 300 mg dose as OPC, fasted, healthy adults, median, read-out: Tmax): 0.75 h
half-life ([2]; 600 mg, single 600 mg dose as OPC, fasted, healthy adults, mean, read-out: T½ (converted)): 8.03 h
Tmax ([2]; 600 mg, single 600 mg dose as OPC, fasted, healthy adults, median, read-out: Tmax): 0.5 h
half-life ([2]; 1000 mg, single 1000 mg dose as OPC, fasted, healthy adults, mean, read-out: T½ (converted)): 9.41 h
Tmax ([2]; 1000 mg, single 1000 mg dose as OPC, fasted, healthy adults, median, read-out: Tmax): 1 h
half-life ([2]; 1500 mg, single 1500 mg dose as OPC, fasted, healthy adults, mean, read-out: T½ (converted)): 8.13 h
Tmax ([2]; 1500 mg, single 1500 mg dose as OPC, fasted, healthy adults, median, read-out: Tmax): 0.75 h
half-life ([2]; 2000 mg, single 2000 mg dose as OPC, fasted, healthy adults, mean, read-out: T½ (converted)): 8.25 h
Tmax ([2]; 2000 mg, single 2000 mg dose as OPC, fasted, healthy adults, median, read-out: Tmax): 1 h
Tmax ([2]; across the dose groups, 1 mg to 2000 mg OPC, fasted, read-out: median Tmax estimates): 0.5 to 3 h
half-life ([2]; over the range of doses studied, OPC, fasted, read-out: mean terminal phase T1/2): 5.1 to 9.41 h
serum concentration-time profile ([2]; single oral dose of OPC formulation, about 1 mg to 2000 mg): rapid absorption followed by a bi-exponential decline in serum concentration
